Columns and labels:
[1] = Acute toxicity after single intraperitoneal administration; type: in vivo; settings: mouse, in vivo, ip, calculated LD 50 (about)
From the text: (§1) Male and female mice of Swiss strain weighing from 22 to 25 g of body weight were free of pathogen specific organisms (EOPS), stemming from breeding CERJ (53860 LE GENEST (France) and acclimated for at least 8 days in the animalry of the firm.
(§2) Except where stipulated to the contrary, in the tables giving the results, 10 animals of the same sex for each dose were housed in cages of MAKROLON (Safi) of 40 cm by 25 cm filled with shaving of wood. Standard feeding for rats and mice, tablets UAR and tap water ad libitum.
(§3) The compounds were administered without previous fasting either orally (gastric tubing using a metallic oesophageous sonde) at a rate of 0.5 ml or 1 ml per 20 g of body weight of an aqueous suspension of the test compound in a 3% solution of arabic gum, or intraperitoneally at a rate of 0.5 ml or 1 ml per 20 g of body weight of the test compound suspended in an isotonic saline solution containing 3% of arabic gum.
(§4) For 6 days after the single administration and then every day for 15 days.
(§5) When necessary, the mean lethal doses (LD 50) were calculated by the method of Behrens and Karber (BK) and Miller and Tainter (MT). The latter allowing to supply with, for the threshold of probability P=0.05 a limit of confidence for the LD 50. Further calculated were the LDo i.e. DMT=maximal doses always tolerated and the LD100 i.e. DMM=minimal doses always lethal.

[2] = Acute toxicity after single oral administration; type: in vivo; settings: mouse, in vivo, po
From the text: as §1, §2, §3, §4, §5
The compound was administered in a single dose to batches of 10 male or female mice weighing […] at a rate of 1 ml per 20 g of body weight.

[3] = test system: hyperlipidaemia / atheroma in Wistar rats on atheromatogenous regimen; assay: Biochemical testings in rats on atheromatogenous (cholesterol-rich) diet, including atheroma risk ratios; type: in vivo, rat; settings: 100 mg/kg; for Cholesterol in LDL, variation in comparison to controls-Diet: LDL (estimate)
From the text: (§6) The method utilized for the test was that, slightly altered of Aubert D. Feraud J. C., Lacaze B., Pepino., Ponak E. et Podesta M. as described in Atherosclerosis, Vol. 20 (1974), p. 263-280 (Experimental Atherogenesis in the Wistar Rat).
(§7) Female rats of Wistar strain, free of specific pathogenic germs (EOPS) stemming from the breeding EVIC-CEBA
Mean body weight: 160-180 g at the start of the test
(§8) Diet: standard tablets UAE AO 3 enriched in cholesterol (0.5%) and in cholic acid (0.5).
15 animals per each batch and by cage in MACROLON (Safi) of 59 cm×38 cm, 5 cm filled with a litter of shavings of wood.
(§9) Diet of the animals: the animals were given the atheromatogenous regimen then while maintaining the same regimen, they were given for 4 days 250,000 IU/kg of vitamin D2 dissolved in olive oil (Sterogyl 15H). The compounds to be tested were given thereafter for 4 weeks immediately after the termination of the atheromatogenous regimen.
At the end of these studies the following tests were performed on all surviving animals.
Esterified blood cholesterol
Cholesterol in LDL (estimate)
The total score for each product was obtained by adding each individual scores and allowed the following classification
The protection against the atheromatogenous risk was evaluated using the following ratios: […]

[4] = test system: atheromatous deposits of the aorta, Wistar rats; assay: Macroscopic examination of aorta atheroma in rats on atheromatogenous diet; type: in vivo, rat; settings: 100 mg/kg
From the text: as §6, §8
After the studies, all the animals were sacrificed by subtotal puncture of the blood in the abdominal aorta after anesthesia by intravenous sodium Pentobarbital. The hearts, livers, aortas on which the score of atheroma was determined were taken. For this purpose, the aortas were longitudinally cut, then spread to allow a whole insight of the endothelial coating from the aortic valves until the branching of the coeliac stem (lower portion of the thoracic aorta).
Aorta was from an anatomic point of view divided into two parts:
Zone 1: aortic valves-first intercostal arters
Zone 2: first intercostal arters and branching of the coeliac stem
The intensity of the atheromatous deposits was determined according to the following scores:
Score 1: Discrete (<1 mm) and few deposit
Score 2: Numerous and discrete deposits
Score 3: Numerous and marked deposits (<1 mm)
Score 4: Very marked deposits or very numerous deposits but letting some uninfiltrated areas
Score 5: Deposits on the whole epithelium
Two parameters were considered:
the intensity of the observed damages determined according to the previously-given scores.

[5] = test system: atheromatous damages of the aorta, Wistar rats; assay: Histopathological examination of atheroma in rats on atheromatogenous diet; type: in vivo, rat; settings: 100 mg/kg
From the text: as §6, §8
The aorta, livers, hearts of the rats after sacrifice were […] with an aqueous solution of Bouin's Reagent and embedded in paraffin after washing with alcohols at increasing concentration and with toluene. The hearts were kept in blocks of paraffin for a further examination when necessary. The livers were stained using the technique of Hematein-eosin and the aorta were stained using the techniques of
orcein-light green to evidence the structural damages of the elastic strips
periodic acid, then Schiff's Reagent to locate the deposits of mucopolysaccharids […]
The intensity of the observed damages and the degree of atheromatosis were determined using one of the following scores: […]
The histopathological examinations provided individual scores which were analyzed, then reported for each batch. Three parameters were distinctly determined: […]
2. The intensity of the atheromatous damages found, determined by the previously-given scores.
3. The number of the observed atheromatous damage calculated on the basis of a batch of 15 animals each.

[6] = test system: female rats of Wistar strain; assay: Tolerance, mortality and body weight in the rat atheroma study
From the text: as §7, §9
The behavior and the changes in weight of the animals were surveyed every day as well as by weekly weighing.

[7] = test system: atheroma / hyperlipidaemia in Wistar rats on atheromatogenous regimen; assay: Overall hypolipaemiant and anti-atheromatous classification (summarized scores); type: in vivo, rat; settings: 100 mg/kg
From the text: as §6, §7, §8, §9

[8] = Maximal tolerated dose on chronic administration in the rat; settings: in vivo
[9] = test system: hyperlipidaemia induced by TRITON WR 1339; assay: Hyperlipidaemia induced by TRITON WR 1339 in the Wistar rat; type: in vivo; settings: for Dose dependence of hypolipaemiant activity: 250 and 500 mg/kg
Description: Feeding by standard Regimen UAR A04
Drinking water ad libitum
6 animals per dose in a cage in MAKROLON of 60×40 cm filled with shavings of wood.
10 mn after: administration of the test compound
6 hours after: 1st sampling of the blood at the retro-orbital sinus
Total cholesterol by the colorimetric method of RICHMOND
Cholesterol in HDL by the colorimetric method of RICHMOND after precipitation by CONCANAVALIN A
Cholesterol in LDL by the colorimetric method of RICHMOND after precipitation by CONCANAVALIN A
Total lipids by the Zollner's sulphophosphovanillic method
Triglycerids by the BUCOLO's enzymatic method.

Compound: CCOC(=O)C(C)(C)Oc1ccc(Cl)cc1 [Clofibrate]
- LD50 [1]: ~1800 mg/kg
- LD50 [2]: 2500 mg/kg
- Cholesterol in LDL / Cholesterol in HDL ratio (risk of atheroma) [3]: 5.35
- Cholesterol in LDL / Cholesterol in HDL, % in comparison with Controls-Diet [3]: -78.13%
- Total Blood Cholesterol / Cholesterol in HDL ratio (risk of atheroma) [3]: 6.69
- Total Blood Cholesterol / Cholesterol in HDL, % in comparison with Controls-Diet [3]: -74.91%
- Cholesterol in HDL, variation in comparison to controls-Diet ([3]; 4 weeks): +104.17%
- Esterified cholesterol, variation in comparison to controls-Diet ([3]; 4 weeks): -55.00%
- Total Blood lipids, variation in comparison to controls-Diet ([3]; 4 weeks): -35.43%
- Total blood cholesterol, variation in comparison to controls-Diet ([3]; 4 weeks): -48.75%
- Triglycerids, variation in comparison to controls-Diet ([3]; 4 weeks): -24.14%
- Cholesterol in LDL, variation in comparison to controls-Diet ([3]; 4 weeks): -55.37%
- Macroscopical examination total score [4]: 2.00
- Damaged animals, % of decrease in comparison with Controls-Diet ([4]; macroscopical): -18.18%
- Damaged animals, percentage ([4]; macroscopical): 81.82%
- Damaged animals, score in relation to Clofibrate ([4]; macroscopical): 1.00
- Intensity of the damages, % of decrease in comparison with Controls-Diet ([4]; macroscopical): -25.65%
- Intensity of the damages, score in relation to Clofibrate ([4]; macroscopical): 1.00
- Histological examination score [5]: 2.00
- Mortality ([6]; rat, in vivo): 4/15
- Classification of the anti-atheromatous action [7]: Compound of the invention>Fenofibrate>Clofibrate
- MTD [8]: ~100 mg/kg

Compound: CC(C)OC(=O)C(C)(C)Oc1ccc(C(=O)c2ccc(Cl)cc2)cc1 [Fenclofibrate]
- Atheromatous risk total score [3]: 0.23
- Cholesterol in LDL / Cholesterol in HDL, % in comparison with Controls-Diet [3]: -12.35%
- Cholesterol in LDL / Cholesterol in HDL, score in comparison with Clofibrate [3]: 0.16
- Total Blood Cholesterol / Cholesterol in HDL, % in comparison with Controls-Diet [3]: -5.06%
- Total Blood Cholesterol / Cholesterol in HDL, score in comparison with Clofibrate (=1) [3]: 0.07
- Cholesterol in HDL score (Clofibrate=1) ([3]; 4 weeks): 0.04
- Cholesterol in HDL, variation in comparison to controls-Diet ([3]; 4 weeks): +4.17%
- Cholesterol in LDL score (Clofibrate=1) ([3]; 4 weeks): 0.16
- Esterified cholesterol score (Clofibrate=1) ([3]; 4 weeks): 0.40
- Esterified cholesterol, variation in comparison to controls-Diet ([3]; 4 weeks): -22.08%
- Total Blood lipids score (Clofibrate=1) ([3]; 4 weeks): 0.29
- Total Blood lipids, variation in comparison to controls-Diet ([3]; 4 weeks): -10.31%
- Total blood cholesterol score (Clofibrate=1) ([3]; 4 weeks): 0.02
- Total blood cholesterol, variation in comparison to controls-Diet ([3]; 4 weeks): -1.09%
- Triglycerids, variation in comparison to controls-Diet ([3]; 4 weeks): -25.86%
- Cholesterol in LDL, variation in comparison to controls-Diet ([3]; 4 weeks): -8.69%
- Biochemistry total score ([3]; sum of individual scores, Clofibrate=1 each): 1.98
- Macroscopical examination total score [4]: 2.17
- Damaged animals, % of decrease in comparison with Controls-Diet ([4]; macroscopical): -16.67%
- Damaged animals, percentage ([4]; macroscopical): 83.33%
- Damaged animals, score in relation to Clofibrate ([4]; macroscopical): 0.92
- Intensity of the damages, % of decrease in comparison with Controls-Diet ([4]; macroscopical): -31.97%
- Intensity of the damages, score in relation to Clofibrate ([4]; macroscopical): 1.25
- Intensity of the damages, quotation ([4]; macroscopical, scores 0 to 5): 1.83
- Histological examination score [5]: 2.13
- Mortality ([6]; 100 mg/kg, 4 weeks, atheromatogenous regimen (batch No. 2: 2/15)): 3/15
- Classification of the anti-atheromatous action [7]: Compound of the invention>Fenofibrate>Clofibrate
- Total Score (biochemistry, atheromatous risk, macroscopical, histological) [7]: 6.51

Compound: CC(C)OC(=O)C(C)(C)Oc1ccc(C(=O)c2ccc(Cl)cc2)cc1 [Procetofene, reference compound]
- Dose dependence of hypolipaemiant activity ([9]; 6 hours after TRITON WR 1339): directly proportional to the doses
- Dose dependence of hypolipaemiant activity ([9]; 24 hours after TRITON WR 1339): inversely proportional to the dose
- Cholesterol HDL/LDL score vs 250 mg/kg Procetofene ([9]; 6 hours after, 250 mg/kg oral): 1.00
- Total Score vs 250 mg/kg Procetofene ([9]; 6 hours after, 250 mg/kg oral): 4.00
- Total cholesterol score vs 250 mg/kg Procetofene ([9]; 6 hours after, 250 mg/kg oral): 1.00
- Total lipids score vs 250 mg/kg Procetofene ([9]; 6 hours after, 250 mg/kg oral): 1.00
- Triglycerids score vs 250 mg/kg Procetofene ([9]; 6 hours after, 250 mg/kg oral): 1.00
- Cholesterol HDL/LDL score vs 250 mg/kg Procetofene ([9]; 6 hours after, 500 mg/kg oral): 1.53
- Total Score vs 250 mg/kg Procetofene ([9]; 6 hours after, 500 mg/kg oral): 5.12
- Total cholesterol score vs 250 mg/kg Procetofene ([9]; 6 hours after, 500 mg/kg oral): 1.65
- Total lipids score vs 250 mg/kg Procetofene ([9]; 6 hours after, 500 mg/kg oral): 0.65
- Triglycerids score vs 250 mg/kg Procetofene ([9]; 6 hours after, 500 mg/kg oral): 1.29
- Cholesterol HDL/LDL score vs 250 mg/kg Procetofene ([9]; 24 hours after, 250 mg/kg oral): 1.00
- Total Score vs 250 mg/kg Procetofene ([9]; 24 hours after, 250 mg/kg oral): 4.00
- Total cholesterol score vs 250 mg/kg Procetofene ([9]; 24 hours after, 250 mg/kg oral): 1.00
- Total lipids score vs 250 mg/kg Procetofene ([9]; 24 hours after, 250 mg/kg oral): 1.00
- Triglycerids score vs 250 mg/kg Procetofene ([9]; 24 hours after, 250 mg/kg oral): 1.00
- Cholesterol HDL/LDL score vs 250 mg/kg Procetofene ([9]; 24 hours after, 500 mg/kg oral): 0.30
- Total Score vs 250 mg/kg Procetofene ([9]; 24 hours after, 500 mg/kg oral): 3.33
- Total lipids score vs 250 mg/kg Procetofene ([9]; 24 hours after, 500 mg/kg oral): 0.85
- Triglycerids score vs 250 mg/kg Procetofene ([9]; 24 hours after, 500 mg/kg oral): 1.01
- Antihyperlipaemiant activity, compound vs Procetofene ([9]; same doses (250 and 500 mg/kg)): antihyperlipaemiant activity about equal
